Results on 33 compounds are retold here after patent publication US20260193229A1, “BRISC DEUBIQUITINATING ENZYME INHIBITORS” (THE TRUSTEES OF THE UNIVERSITY OF PENNSYLVANIA, priority 2022, published 2026).

In the first experiment the target is T1, BRISC (Homo sapiens, UniProt P46736+Q15018).
T1 construct: made in house; host or cells: insect cells (MultiBac baculovirus)
The experiment in a line: BRISC DUB inhibition assay with quenched K63-linked di-ubiquitin substrate (TAMRA fluorescence). Format: biochemical. The conditions noted are these: Table 1, Activity Range Table. On the procedure: High throughput screening. A baculoviral expression system was established to purify milligram quantities of the entire BRISC complex from insect cells. The MultiBac system was used to clone all 4 components of the BRISC complex into one vector which was then packaged into the baculovirus genome using the methods described in Zeqiraj et al., 2015 (Mol. Cell).
The assay buffer included: 50 mM HEPES-NaOH, pH 7.0; 100 mM NaCl; 1 mM DTT; 1 mg/ml BSA; and 0.03% Brij-35. BRISC was assayed at 1 nM (final concentration) with the substrate at 500 nM (final concentration). The final reaction volume was 20 μl in each 384 plate well (Corning, #3573; black, low flange, flat bottom) with a final concentration of compounds of 10 μM.
A 5 ml of enzyme solution with BRISC at 2 nM in assay buffer was made by adding 10 μl of BRISC working stock (1 μM) to 5 ml of assay buffer. A 5 ml of substrate solution was made with […] of K63-diUbiquitin (made in-house) plus […] of IQF K63-diUbiquitin by adding the appropriate volumes of diUbiquitins to 5 ml of assay buffer. 45 μL of BRISC (enzyme solution) was dispensed into columns 1-11 of a 96 well PCR plate (skirted). Buffer was only dispensed in column 12 (no enzyme control). 45 μl of substrate solution was dispensed into columns 1-12 of a 96 well PCR plate (skirted). The plate was spun down at 3000 rpm (bench top centrifuge) at room temp for 2 min to remove any air bubbles. Using a Biomek FX, liquid handler (Bekman), 10 μl of BRISC (enzyme solution) was dispensed into the 4 quadrants of a 384 well plate. 200 nl of compounds was dispensed into each well of the 384 plates using the pin tool (columns A and B usually contain DMSO only, and serve as controls), and the plates were incubated for 10-15 minutes at room temperature. 10 μl of substrate solution was dispensed into the 4 quadrants of the 384 well plate. The plate was then incubated for 30 min at room temperature in the dark and read with settings suitable for detecting TAMRA fluorescence (excitation wavelength of 540 nm and emission wavelength of 580 nm). A PHERAStar plate (BMG labtech) reader was used with a gain value of 570. The Intensity/Background (I/Bg), defined as [(Average of columns 1 and 2; DMSO controls)/(Average of columns 23 and 24; no enzyme controls)], were about 5.
The activities of the compounds disclosed in the present disclosure in inhibiting BRCC36 enzyme activity was measured in accordance with the method disclosed in Example 2.
The term IC50 denotes the concentration that gives 50% inhibition. `O=C(NC1CCNCC1)c1nn(S(=O)(=O)c2cc(Cl)cc(C(F)(F)F)c2)cc1NC(=O)c1c(Cl)cccc1Cl` [Compound 27] displayed an IC50 of 50 to 300 µM. Turning to `O=C(NC1CCNCC1)c1nn(S(=O)(=O)c2ccc(OCCCN3C(=O)c4ccccc4C3=O)cc2)cc1NC(=O)c1c(Cl)cccc1Cl` [Compound 30, 4-(2,6-dichlorobenzamido)-1-(4-(3-(1,3-dioxoisoindolin-2-yl)propoxy)phenylsulfonyl)-N-(piperidin-4-yl)-1H-pyrazole-3-carboxamide], the IC50 was 1 to 10 µM.

Consider `O=C(NC1CCNCC1)c1nn(S(=O)(=O)c2ccccc2)cc1NC(=O)c1c(Cl)cccc1Cl` [Compound 5], for which the IC50 was 10 to 50 µM. `COc1ccccc1NC(=O)n1cc(NC(=O)c2c(Cl)cccc2Cl)c(C(=O)NC2CCNCC2)n1` [Compound 19] returned an IC50 of 10 to 50 µM. As for `O=C(NC1CCNCC1)c1nn(C(=O)Nc2cccc(Cl)c2)cc1NC(=O)c1c(Cl)cccc1Cl` [Compound 36], the IC50 lay within 50 to 300 µM. Same read-out and setting: the same measure for `O=C(NC1CCNCC1)c1nn(S(=O)(=O)c2cc(Cl)cc(Cl)c2)cc1NC(=O)c1c(Cl)cccc1Cl` [Compound 3]: 1 to 10 µM; for `O=C(NC1CCNCC1)c1nn(S(=O)(=O)c2cc(C(F)(F)F)ccc2Cl)cc1NC(=O)c1c(Cl)cccc1Cl` [Compound 26]: 50 to 300 µM; for `O=C(NC1CNC1)c1nn(C(=O)c2c(Cl)cccc2Cl)cc1NC(=O)c1c(Cl)cccc1Cl` [Compound 17]: 10 to 50 µM. The same measure, in the same setting: as for `O=C(NC1C2CNCC21)c1nn(C(=O)c2c(Cl)cccc2Cl)cc1NC(=O)c1c(Cl)cccc1Cl` (stereo not drawn) [Compound 13], the figure is 1 to 10 µM; as for `O=C(Nc1cn(C(=O)c2c(Cl)cccc2Cl)nc1C(=O)N1CCNCC1)c1c(Cl)cccc1Cl` [Compound 7], 1 to 10 µM; as for `NCCCNC(=O)c1nn(C(=O)c2c(Cl)cccc2Cl)cc1NC(=O)c1c(Cl)cccc1Cl` [Compound 10], 1 to 10 µM.

`O=C(NC1CCNCC1)c1nn(S(=O)(=O)CCc2ccccc2)cc1NC(=O)c1c(Cl)cccc1Cl` [Compound 6] showed an IC50 of 1 to 10 µM. `COC(=O)c1ccccc1NC(=O)n1cc(NC(=O)c2c(Cl)cccc2Cl)c(C(=O)NCCCN2CCCC2)n1` [Compound 21]: the IC50 lay within 50 to 300 µM. Same read-out and setting: as for `O=C(NCCN1CCCC1)c1nn(C(=O)c2c(Cl)cccc2Cl)cc1NC(=O)c1c(Cl)cccc1Cl` [Compound 20], the figure is 10 to 50 µM. For the compound `O=C(NC1CCNCC1)c1nn(S(=O)(=O)CCc2ccc(Cl)cc2)cc1NC(=O)c1c(Cl)cccc1Cl` [Compound 31], the 50% inhibitory concentration (IC50) was in the range of 1 to 10 µM. In turn, `O=C(NC1CCNCC1)c1nn(S(=O)(=O)c2ccc(Cl)cc2)cc1NC(=O)c1c(Cl)cccc1Cl` [Compound 4] registered an IC50 of 1 to 10 µM.

The compound `CN(C(=O)c1nn(C(=O)c2c(Cl)cccc2Cl)cc1NC(=O)c1c(Cl)cccc1Cl)C1CCNCC1` [Compound 11] showed an IC50 of 1 to 10 µM.

In the case of `COc1ccccc1NC(=O)n1cc(NC(=O)c2c(Cl)cccc2Cl)c(C(=O)NC2CCNCC2)n1` [Compound 18, 4-(2,6-dichlorobenzamido)-N1-(2-methoxyphenyl)-N3-(piperidin-4-yl)-1H-pyrazole-1,3-dicarboxamide], the IC50 was in the range of 10 to 50 µM. Compound `CC1CNCCC1NC(=O)c1nn(C(=O)c2c(Cl)cccc2Cl)cc1NC(=O)c1c(Cl)cccc1Cl` (stereo not drawn) [Compound 12] returned an IC50 of 1 to 10 µM.

As for `O=C(N[C@@H]1CCNC1)c1nn(C(=O)c2c(Cl)cccc2Cl)cc1NC(=O)c1c(Cl)cccc1Cl` [Compound 8], the IC50 fell in the range of 1 to 10 µM. Same read-out and setting: the same measure for `CN(C(=O)c1nn(C(=O)c2c(Cl)cccc2Cl)cc1NC(=O)c1c(Cl)cccc1Cl)C1CNC1` [Compound 15]: 10 to 50 µM. Compound `C[N+]1(C)CCC(NC(=O)c2nn(C(=O)c3c(Cl)cccc3Cl)cc2NC(=O)c2c(Cl)cccc2Cl)CC1` [Compound 29] registered an IC50 of 10 to 50 µM. `O=C(NC1CCNCC1)c1nn(S(=O)(=O)c2cccc(Cl)c2)cc1NC(=O)c1c(Cl)cccc1Cl` [Compound 24] yielded an IC50 of 50 to 300 µM. As to `O=C(N[C@H]1CCNC1)c1nn(C(=O)c2c(Cl)cccc2Cl)cc1NC(=O)c1c(Cl)cccc1Cl` [Compound 9], the IC50 was in the range of 1 to 10 µM. In turn, `O=C(NC1CCNCC1)c1nn(S(=O)(=O)c2ccccc2Cl)cc1NC(=O)c1c(Cl)cccc1Cl` [Compound 25] had an IC50 of 50 to 300 µM.

Turning to `COC(=O)COc1ccc(S(=O)(=O)n2cc(NC(=O)c3c(Cl)cccc3Cl)c(C(=O)NC3CCNCC3)n2)cc1` [Compound 33, Methyl 2-(4-(4-(2,6-dichlorobenzamido)-3-(piperidin-4-ylcarbamoyl)-1H-pyrazol-1-ylsulfonyl)phenoxy)acetate], the IC50 fell in the range of 50 to 300 µM. `CN1CCC(NC(=O)c2nn(C(=O)c3c(Cl)cccc3Cl)cc2NC(=O)c2c(Cl)cccc2Cl)CC1` [Compound 37] returned an IC50 of 1 to 10 µM. For `C#CCCCCOC(=O)COc1ccc(S(=O)(=O)n2cc(NC(=O)c3c(Cl)cccc3Cl)c(C(=O)NC3CCNCC3)n2)cc1` [Compound 32, Hex-5-ynyl 2-(4-(4-(2,6-dichlorobenzamido)-3-(piperidin-4-ylcarbamoyl)-1H-pyrazol-1-ylsulfonyl)phenoxy)acetate], the IC50 fell in the range of 10 to 50 µM. Compound `NCCCOc1ccc(S(=O)(=O)n2cc(NC(=O)c3c(Cl)cccc3Cl)c(C(=O)NC3CCNCC3)n2)cc1` [Compound 34, 1-(4-(3-aminopropoxy)phenylsulfonyl)-4-(2,6-dichlorobenzamido)-N-(piperidin-4-yl)-1H-pyrazole-3-carboxamide] gave an IC50 of 50 to 300 µM.

The same experiment, now with this note: Table 2, method of Example 2; read-out: BRISC IC50 μM Range.
For `COC(=O)c1cnc2c(SCc3ccccn3)cccc2c1` [Compound 54], the IC50 was in the range of 10 to 50 µM. Take `C#CCCCCOc1ccc(S(=O)(=O)n2cc(NC(=O)c3c(Cl)cccc3Cl)c(C(=O)NC3CCNCC3)n2)cc1` [Compound 41, 4-(2,6-Dichlorobenzamido)-1-(4-(hex-5-ynyloxy)phenylsulfonyl)-N-(piperidin-4-yl)-1H-pyrazole-3-carboxamide]: the IC50 fell in the range of 1 to 10 µM. As to `Cc1ncsc1-c1ccc(CNC(=O)[C@@H]2C[C@H](O)CN2C(=O)[C@@H](NC(=O)COCCOCCOCCn2cc(CCCCOc3ccc(S(=O)(=O)n4cc(NC(=O)c5c(Cl)cccc5Cl)c(C(=O)NC5CCNCC5)n4)cc3)nn2)C(C)(C)C)cc1` [Compound 43, 4-(2,6-dichlorobenzamido)-1-(4-(4-(1-((S)-13-((2S,4S)-4-hydroxy-2-(4-(4-methylthiazol-5-yl)benzylcarbamoyl)pyrrolidine-1-carbonyl)-14,14-dimethyl-11-oxo-3,6,9-trioxa-12-azapentadecyl)-1H-1,2,3-triazol-4-yl)butoxy)phenylsulfonyl)-N-(piperidin-4-yl)-1H-pyrazole-3-carboxamide], the IC50 was in the range of 0.1 to 1 µM. Turning to `C[C@@H]1CNCCN1C(=O)c1nn(C(=O)c2c(Cl)cccc2Cl)cc1NC(=O)c1c(Cl)cccc1Cl` [Compound 55], the IC50 lay within 1 to 10 µM.
